Laboratory results: patent publication US20230227466A1, “SUBSTITUTED THIENOPYRIMIDINES THAT INTERACT WITH THE RAS SUPERFAMILY FOR THE TREATMENT OF CANCERS, INFLAMMATORY DISEASES, RASOPATHIES, AND FIBROTIC DISEASE” (SHY Therapeutics, LLC, priority 2020, published 2023)
Read-outs that look alike come from different tables or passages of the source.

Key:
[1] = tested on: MIA-PaCa-2 pancreatic cancer cell line (KRAS G12C); assay: Cell proliferation assay (CellTiter 96 Aqueous One); assay type: cell-based; settings: Homo sapiens; for IC50: MIA PaCa-2, MIA PaCa-2; for inhibition at 10 µM: MIA PaCa-2, read-out: % inh cell proliferation (10 μM) in MIA PaCa-2
Outline: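 Percent inhibition of proliferation is derived from MTS absorbance data. Cells seeded at 2000–5000 per well were grown overnight before treatment. Compounds, at 10 μM final or in dilution series, stayed on cells for 2–4 days in medium containing 10% FBS and 0.3% DMSO.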

[2] = molecular target: Rho-A (Homo sapiens, UniProt P61586); assay: Ras GTP binding domain inhibition assay (labeled-GTP competition, cell-free); design: made in house; settings: without SOS, read-out: Rho-A: % inh.
Outline: (§1)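 First, the His-tagged protein was captured overnight at 4° C on nickel wells. Second, compound was applied at 20 μM or as a dilution series for IC50 over 3 h. Third, 100 nM Cy3- or Cy5-GTP was added for 45 min. Finally, wells were washed and bound label quantified.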

[3] = molecular target: KRas wild type (Homo sapiens, UniProt P01116); assay: as above; design: made in house
Outline: as §1

[4] = molecular target: Rac-1 (Homo sapiens, UniProt P63000); assay: as above; design: made in house; settings: without SOS, read-out: Rac-1: % inh.
Outline: as §1

[5] = molecular target: T1, KRas G12C mutant (Homo sapiens, UniProt P01116, G12C); assay: as above
T1 construct: made in house
Outline: as §1

[6] = molecular target: T2, KRas G12D mutant (Homo sapiens, UniProt P01116, G12D); assay: as above
T2 construct: made in house
Outline: as §1

[7] = molecular target: T3, KRas Q61H mutant (Homo sapiens, UniProt P01116, Q61H); assay: as above; settings: at 20 μM
T3 construct: made in house
Outline: as §1

[8] = with SOS, read-out: KRas wild type + SOS: % inh.
[9] = without SOS, read-out: KRas wild type: % inh.
[10] = with SOS, read-out: KRas G12C mutant + SOS: % inh.
[11] = without SOS, read-out: KRas G12C mutant: % inh.
[12] = with SOS, read-out: KRas G12D mutant + SOS: % inh.
[13] = without SOS, read-out: KRas G12D mutant: % inh.
[14] = with SOS, read-out: KRas Q61H mutant + SOS: % inh.
[15] = without SOS, read-out: KRas Q61H mutant: % inh.

Row | SMILES | IC50 [1] [µM] | inhibition at 10 µM [1] [%] | inhibition at 20 µM [2] [%] | inhibition at 20 µM [3, 8] [%] | inhibition at 20 µM [3, 9] [%] | inhibition at 20 µM [4] [%] | inhibition at 20 µM [5, 10] [%] | inhibition at 20 µM [5, 11] [%] | inhibition at 20 µM [6, 12] [%] | inhibition at 20 µM [6, 13] [%] | inhibition at 20 µM [7, 14] [%] | inhibition at 20 µM [7, 15] [%]
1 | Cc1c(-c2ccn(C(C)C)n2)sc2nc(-c3nccn3C)nc(NC[C@H]3CCC(=O)N3)c12 [Compound 52, (R)-5-(((6-(1-Isopropyl-1H-pyrazol-3-yl)-5-methyl-2-(1-methyl-1H-imidazol-2-yl)thieno[2,3-d]pyrimidin-4-yl)amino)methyl)pyrrolidin-2-one] | > 10 | 1 to 25 | 76 to 100 | 51 to 75 | 51 to 75 | 51 to 75 | 26 to 50 | 51 to 75 | 51 to 75 | 51 to 75 | 51 to 75 | 51 to 75
2 | Cc1c(-c2ccn(C(C)C)n2)sc2nc(-c3nccn3C)nc(NCCc3ncc[nH]3)c12 [Compound 53, N-(2-(1H-Imidazol-2-yl)ethyl)-6-(1-isopropyl-1H-pyrazol-3-yl)-5-methyl-2-(1-methyl-1H-imidazol-2-yl)thieno[2,3-d]pyrimidin-4-amine] | 5 to 10 | 76 to 100 | 76 to 100 | 51 to 75 | 26 to 50 | 1 to 25 | 26 to 50 | 26 to 50 | 26 to 50 | 1 to 25 | 26 to 50 | 26 to 50
3 | CO[C@H]1CC[C@H](Nc2nc(-c3nccn3C)nc3sc(-c4ccn(C(C)C)n4)c(C)c23)CC1 [Compound 54] | < 1 | 76 to 100 | 51 to 75 | 76 to 100 | 76 to 100 | 26 to 50 | 76 to 100 | 76 to 100 | 76 to 100 | 51 to 75 | 76 to 100 | 51 to 75
4 | CO[C@H]1CC[C@@H](Nc2nc(-c3nccn3C)nc3sc(-c4ccn(C(C)C)n4)c(C)c23)CC1 [Compound 55] | < 1 | 76 to 100 | 51 to 75 | 1 to 25 | 1 to 25 | 0 | 26 to 50 | 26 to 50 | 26 to 50 | 51 to 75 | 26 to 50 | 1 to 25
5 | Cc1c(-c2ccn(C(C)C)n2)sc2nc(-c3nccn3C)nc(NCc3ncc[nH]3)c12 [Compound 57, N-((1H-Imidazol-2-yl)methyl)-6-(1-isopropyl-1H-pyrazol-3-yl)-5-methyl-2-(1-methyl-1H-imidazol-2-yl)thieno[2,3-d]pyrimidin-4-amine] | 5 to 10 | 51 to 75 | 51 to 75 | 26 to 50 | 26 to 50 | 0 | 26 to 50 | 26 to 50 | 26 to 50 | 1 to 25 | 26 to 50 | 26 to 50
6 | Cc1c(-c2ccn(C(C)C)n2)sc2nc(-c3nccn3C)nc(NCCc3cn(C)cn3)c12 [Compound 58, 6-(1-Isopropyl-1H-pyrazol-3-yl)-5-methyl-2-(1-methyl-1H-imidazol-2-yl)-N-(2-(1-methyl-1H-imidazol-4-yl)ethyl)thieno[2,3-d]pyrimidin-4-amine] | 5 to 10 | 76 to 100 | 76 to 100 | 76 to 100 | 76 to 100 | 26 to 50 | 76 to 100 | 76 to 100 | 51 to 75 | 26 to 50 | 51 to 75 | 51 to 75
7 | COc1cccc(Nc2nc(-c3nccn3C)nc3sc(-c4ccn(C(C)C)n4)c(C)c23)n1.Cl [Compound 65, 6-(1-Isopropyl-1H-pyrazol-3-yl)-N-(6-methoxypyridin-2-yl)-5-methyl-2-(1-methyl-1H-imidazol-2-yl)thieno[2,3-d]pyrimidin-4-amine hydrochloride salt] | 5 to 10 | 76 to 100 | 51 to 75 | 51 to 75 | 26 to 50 | 26 to 50 | 76 to 100 | 26 to 50 | 51 to 75 | 26 to 50 | 51 to 75 | 26 to 50
8 | COc1cc(Nc2nc(-c3nccn3C)nc3sc(-c4ccn(C(C)C)n4)c(C)c23)ncn1 [Compound 66, 6-(1-Isopropyl-1H-pyrazol-3-yl)-N-(6-methoxypyrimidin-4-yl)-5-methyl-2-(1-methyl-1H-imidazol-2-yl)thieno[2,3-d]pyrimidin-4-amine] | < 1 | 76 to 100 | 76 to 100 | 51 to 75 | 51 to 75 | 51 to 75 | 26 to 50 | 26 to 50 | 51 to 75 | 76 to 100 | 26 to 50 | 51 to 75
9 | COc1cc(Nc2nc(-c3nccn3C)nc3sc(-c4ccn(C(C)C)n4)c(C)c23)ccn1 [Compound 67, 6-(1-Isopropyl-1H-pyrazol-3-yl)-N-(2-methoxypyridin-4-yl)-5-methyl-2-(1-methyl-1H-imidazol-2-yl)thieno[2,3-d]pyrimidin-4-amine] | 5 to 10 | 76 to 100 | 26 to 50 | 51 to 75 | 26 to 50 | 1 to 25 | 51 to 75 | 26 to 50 | 51 to 75 | 0 | 51 to 75 | 51 to 75
10 | COc1ccnc(Nc2nc(-c3nccn3C)nc3sc(-c4ccn(C(C)C)n4)c(C)c23)n1 [Compound 68, 6-(1-Isopropyl-1H-pyrazol-3-yl)-N-(4-methoxypyrimidin-2-yl)-5-methyl-2-(1-methyl-1H-imidazol-2-yl)thieno[2,3-d]pyrimidin-4-amine] | 1 to 4.99 | 76 to 100 | 76 to 100 | 76 to 100 | 76 to 100 | 76 to 100 | 51 to 75 | 76 to 100 | 76 to 100 | 76 to 100 | 51 to 75 | 76 to 100
11 | Cc1c(-c2ccn(C(C)C)n2)sc2nc(-c3ccccn3)nc(N3CCC(COC(C)C)C3)c12 (stereo not drawn) [Compound 72, 4-(3-(Isopropoxymethyl)pyrrolidin-1-yl)-6-(1-isopropyl-1H-pyrazol-3-yl)-5-methyl-2-(pyridin-2-yl)thieno[2,3-d]pyrimidine] | 5 to 10 | 51 to 75 | 1 to 25 | 0 | 1 to 25 | 0 | 1 to 25 | 0 | 0 | 51 to 75 | 0 | 0
12 | COCCn1cnc(-c2nc(O)c3scc(-c4ccccn4)c3n2)c1 [Compound 78, 2-(1-(2-Methoxyethyl)-1H-imidazol-4-yl)-7-(pyridin-2-yl)thieno[3,2-d]pyrimidin-4-ol] | 5 to 10 | 51 to 75 | 51 to 75 | 51 to 75 | 76 to 100 | 51 to 75 | 51 to 75 | 51 to 75 | 51 to 75 | 76 to 100 | 51 to 75 | 76 to 100
13 | COCCCn1ccnc1-c1nc(O)c2scc(-c3ccccn3)c2n1 [Compound 79, 2-(1-(3-Methoxypropyl)-1H-imidazol-2-yl)-7-(pyridin-2-yl)thieno[3,2-d]pyrimidin-4-ol] | 1 to 4.99 | 76 to 100 | 76 to 100 | 51 to 75 | 76 to 100 | 51 to 75 | 51 to 75 | 51 to 75 | 51 to 75 | 51 to 75 | 51 to 75 | 51 to 75
